{"source": "patent US11117900B2", "about": "(Vertex Pharmaceuticals Incorporated, priority 2012, dated 2021)"}
{"system": "HCT116 colorectal cancer cells", "assay": "Cisplatin sensitization assay (96 h MTS cell viability);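 note: compound concentration needed to lower the IC50 of Cisplatin alone by a set fold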", "type": "cell-based", "settings": "Cisplatin sensitization value", "how_it_was_run": "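The MTS viability read, after 1 h with reagent, followed 96 h of co-treatment at 37° C. in 5% CO2. Both compound and cisplatin were titrated 2-fold from a 10 μM top final concentration in a complete concentration matrix on HCT116 cells. Scores +++/++/+ reflect cisplatin sensitization value ranges.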"}
{"smiles": "Nc1nn2cc(F)cnc2c1C(=O)Nc1cncc(F)c1N1CCC(N2CCCC2=O)CC1", "note": "[I-N-147, 2-amino-6-fluoro-N-(5-fluoro-4-(4-(2-oxopyrrolidin-1-yl)piperidin-1-yl)pyridin-3-yl)pyrazolo[1,5-a]pyrimidine-3-carboxamide]", "Cisplatin Sensitization Assay": "+++ (Compounds with a Cisplatin sensitization value of <0.02 μM are marked with “+++.”)"}
{"smiles": "CN1CCC(N(C)S(=O)(=O)C2CCN(c3c(F)cncc3NC(=O)c3c(N)nn4cc(F)cnc34)CC2)CC1", "note": "[I-N-148, 2-amino-6-fluoro-N-(5-fluoro-4-(4-(N-methyl-N-(1-methylpiperidin-4-yl)sulfamoyl)piperidin-1-yl)pyridin-3-yl)pyrazolo[1,5-a]pyrimidine-3-carboxamide]", "Cisplatin Sensitization Assay": "+++ (Compounds with a Cisplatin sensitization value of <0.02 μM are marked with “+++.”)"}
{"smiles": "Nc1nn2cc(F)cnc2c1C(=O)Nc1cncc(F)c1N1CCC(CN2CCOCC2)CC1", "note": "[I-N-149, 2-amino-6-fluoro-N-(5-fluoro-4-(4-(morpholinomethyl)piperidin-1-yl)pyridin-3-yl)pyrazolo[1,5-a]pyrimidine-3-carboxamide]", "Cisplatin Sensitization Assay": "+++ (Compounds with a Cisplatin sensitization value of <0.02 μM are marked with “+++.”)"}
{"smiles": "CN1CCN(CC2CCN(c3c(F)cncc3NC(=O)c3c(N)nn4cc(F)cnc34)CC2)CC1", "note": "[I-N-150, 2-amino-6-fluoro-N-(5-fluoro-4-(4-((4-methylpiperazin-1-yl)methyl)piperidin-1-yl)pyridin-3-yl)pyrazolo[1,5-a]pyrimidine-3-carboxamide]", "Cisplatin Sensitization Assay": "+++ (Compounds with a Cisplatin sensitization value of <0.02 μM are marked with “+++.”)"}
{"smiles": "CN1CCN(C2CCN(c3c(F)cncc3NC(=O)c3c(N)nn4cc(F)cnc34)CC2)C(=O)C1", "note": "[I-N-151, 2-amino-6-fluoro-N-(5-fluoro-4-(4-(4-methyl-2-oxopiperazin-1-yl)piperidin-1-yl)pyridin-3-yl)pyrazolo[1,5-a]pyrimidine-3-carboxamide]", "Cisplatin Sensitization Assay": "+ (Compounds with a Cisplatin sensitization value >0.2 μM but <5 μM are marked with “+.”)"}
{"smiles": "Nc1nn2cc(F)cnc2c1C(=O)Nc1cnccc1N1CCCCC1", "note": "[I-N-152, 2-amino-6-fluoro-N-(4-(piperidin-1-yl)pyridin-3-yl)pyrazolo[1,5-a]pyrimidine-3-carboxamide]", "Cisplatin Sensitization Assay": "+++ (Compounds with a Cisplatin sensitization value of <0.02 μM are marked with “+++.”)"}
{"smiles": "CN(C)CC(=O)N1CCN(c2c(F)cncc2NC(=O)c2c(N)nn3cc(F)cnc23)CC1", "note": "[I-N-153, 2-amino-N-(4-(4-(2-(dimethylamino)acetyl)piperazin-1-yl)-5-fluoropyridin-3-yl)-6-fluoropyrazolo[1,5-a]pyrimidine-3-carboxamide]", "Cisplatin Sensitization Assay": "++ (Compounds with a Cisplatin sensitization value >0.02 μM but <0.2 μM are marked with “++.”)"}
{"smiles": "CN1CCC(OC2CCN(c3ccncc3NC(=O)c3c(N)nn4cc(F)cnc34)CC2)CC1", "note": "[I-N-154, 2-amino-6-fluoro-N-(4-(4-((1-methylpiperidin-4-yl)oxy)piperidin-1-yl)pyridin-3-yl)pyrazolo[1,5-a]pyrimidine-3-carboxamide]", "Cisplatin Sensitization Assay": "+++ (Compounds with a Cisplatin sensitization value of <0.02 μM are marked with “+++.”)"}
{"smiles": "Nc1nn2cc(F)cnc2c1C(=O)Nc1cncc(F)c1N1CCC(S(=O)(=O)N2CCOCC2)CC1", "note": "[I-N-155, 2-amino-6-fluoro-N-(5-fluoro-4-(4-(morpholinosulfonyl)piperidin-1-yl)pyridin-3-yl)pyrazolo[1,5-a]pyrimidine-3-carboxamide]", "Cisplatin Sensitization Assay": "+++ (Compounds with a Cisplatin sensitization value of <0.02 μM are marked with “+++.”)"}
{"smiles": "CN1CCC(C(=O)N2CCN(c3c(F)cncc3NC(=O)c3c(N)nn4cc(F)cnc34)CC2)C1", "note": "(stereo not shown) [I-N-156, 2-amino-6-fluoro-N-(5-fluoro-4-(4-(1-methylpyrrolidine-3-carbonyl)piperazin-1-yl)pyridin-3-yl)pyrazolo[1,5-a]pyrimidine-3-carboxamide]", "Cisplatin Sensitization Assay": "+++ (Compounds with a Cisplatin sensitization value of <0.02 μM are marked with “+++.”)"}
{"smiles": "CN1CCC[C@H]1C(=O)N1CCN(c2c(F)cncc2NC(=O)c2c(N)nn3cc(F)cnc23)CC1", "note": "[I-N-157, (S)-2-amino-6-fluoro-N-(5-fluoro-4-(4-(1-methylpyrrolidine-2-carbonyl)piperazin-1-yl)pyridin-3-yl)pyrazolo[1,5-a]pyrimidine-3-carboxamide]", "Cisplatin Sensitization Assay": "++ (Compounds with a Cisplatin sensitization value >0.02 μM but <0.2 μM are marked with “++.”)"}
{"smiles": "Nc1nn2cc(F)cnc2c1C(=O)Nc1cncc(F)c1N1CCN(S(=O)(=O)C2CCOCC2)CC1", "note": "[I-N-158, 2-amino-6-fluoro-N-(5-fluoro-4-(4-((tetrahydro-2H-pyran-4-yl)sulfonyl)piperazin-1-yl)pyridin-3-yl)pyrazolo[1,5-a]pyrimidine-3-carboxamide]", "Cisplatin Sensitization Assay": "+++ (Compounds with a Cisplatin sensitization value of <0.02 μM are marked with “+++.”)"}
{"smiles": "Nc1nn2cc(F)cnc2c1C(=O)Nc1cncc(F)c1N1CCN(S(=O)(=O)C2CC2)CC1", "note": "[I-N-159, 2-amino-N-(4-(4-(cyclopropylsulfonyl)piperazin-1-yl)-5-fluoropyridin-3-yl)-6-fluoropyrazolo[1,5-a]pyrimidine-3-carboxamide]", "Cisplatin Sensitization Assay": "+++ (Compounds with a Cisplatin sensitization value of <0.02 μM are marked with “+++.”)"}
{"smiles": "Nc1nn2cc(F)cnc2c1C(=O)Nc1cncc(F)c1N1CCN(C(=O)CN2CCC2)CC1", "note": "[I-N-160, 2-amino-N-(4-(4-(2-(azetidin-1-yl)acetyl)piperazin-1-yl)-5-fluoropyridin-3-yl)-6-fluoropyrazolo[1,5-a]pyrimidine-3-carboxamide]", "Cisplatin Sensitization Assay": "+++ (Compounds with a Cisplatin sensitization value of <0.02 μM are marked with “+++.”)"}
{"smiles": "Cc1ncn(-c2ccncc2NC(=O)c2c(N)nn3cc(F)cnc23)n1", "note": "[I-N-161, 2-amino-6-fluoro-N-(4-(3-methyl-1H-1,2,4-triazol-1-yl)pyridin-3-yl)pyrazolo[1,5-a]pyrimidine-3-carboxamide]", "Cisplatin Sensitization Assay": "+ (Compounds with a Cisplatin sensitization value >0.2 μM but <5 μM are marked with “+.”)"}
{"smiles": "Cc1ncnn1-c1ccncc1NC(=O)c1c(N)nn2cc(F)cnc12", "note": "[I-N-162, 2-amino-6-fluoro-N-(4-(5-methyl-1H-1,2,4-triazol-1-yl)pyridin-3-yl)pyrazolo[1,5-a]pyrimidine-3-carboxamide]", "Cisplatin Sensitization Assay": "++ (Compounds with a Cisplatin sensitization value >0.02 μM but <0.2 μM are marked with “++.”)"}
{"smiles": "Nc1nn2cc(F)cnc2c1C(=O)Nc1cncc(F)c1N1CCN2C(=O)CCC2C1", "note": "(stereo not shown) [I-N-163, 2-amino-6-fluoro-N-(5-fluoro-4-(6-oxohexahydropyrrolo[1,2-a]pyrazin-2(1H)-yl)pyridin-3-yl)pyrazolo[1,5-a]pyrimidine-3-carboxamide]", "Cisplatin Sensitization Assay": "+++ (Compounds with a Cisplatin sensitization value of <0.02 μM are marked with “+++.”)"}
{"smiles": "CN1CC(OC2CCN(c3ccncc3NC(=O)c3c(N)nn4cc(F)cnc34)CC2)C1", "note": "[I-N-164, 2-amino-6-fluoro-N-(4-(4-((1-methylazetidin-3-yl)oxy)piperidin-1-yl)pyridin-3-yl)pyrazolo[1,5-a]pyrimidine-3-carboxamide]", "Cisplatin Sensitization Assay": "+++ (Compounds with a Cisplatin sensitization value of <0.02 μM are marked with “+++.”)"}
{"smiles": "CS(=O)(=O)C1CCN(c2c(F)cncc2NC(=O)c2c(N)nn3cc(F)cnc23)CC1", "note": "[I-N-165, 2-amino-6-fluoro-N-(5-fluoro-4-(4-(methylsulfonyl)piperidin-1-yl)pyridin-3-yl)pyrazolo[1,5-a]pyrimidine-3-carboxamide]", "Cisplatin Sensitization Assay": "+++ (Compounds with a Cisplatin sensitization value of <0.02 μM are marked with “+++.”)"}
{"smiles": "CN1CCN(S(=O)(=O)C2CCN(c3c(F)cncc3NC(=O)c3c(N)nn4cc(F)cnc34)CC2)CC1", "note": "[I-N-166, 2-amino-6-fluoro-N-(5-fluoro-4-(4-((4-methylpiperazin-1-yl)sulfonyl)piperidin-1-yl)pyridin-3-yl)pyrazolo[1,5-a]pyrimidine-3-carboxamide]", "Cisplatin Sensitization Assay": "+++ (Compounds with a Cisplatin sensitization value of <0.02 μM are marked with “+++.”)"}
{"smiles": "Nc1nn2cc(F)cnc2c1C(=O)Nc1cncc(F)c1N1CCC(OCCN2CCCC2)CC1", "note": "[I-N-167, 2-amino-6-fluoro-N-(5-fluoro-4-(4-(2-(pyrrolidin-1-yl)ethoxy)piperidin-1-yl)pyridin-3-yl)pyrazolo[1,5-a]pyrimidine-3-carboxamide]", "Cisplatin Sensitization Assay": "+++ (Compounds with a Cisplatin sensitization value of <0.02 μM are marked with “+++.”)"}
{"smiles": "Nc1nn2cc(F)cnc2c1C(=O)Nc1cncc(F)c1N1CCN(C(=O)C2CNC2)CC1", "note": "[I-N-168, 2-amino-N-(4-(4-(azetidine-3-carbonyl)piperazin-1-yl)-5-fluoropyridin-3-yl)-6-fluoropyrazolo[1,5-a]pyrimidine-3-carboxamide]", "Cisplatin Sensitization Assay": "+ (Compounds with a Cisplatin sensitization value >0.2 μM but <5 μM are marked with “+.”)"}
{"smiles": "Nc1nn2cc(F)cnc2c1C(=O)Nc1cncc(F)c1N1CCC(S(=O)(=O)N2CCC2)CC1", "note": "[I-N-169, 2-amino-N-(4-(4-(azetidin-1-ylsulfonyl)piperidin-1-yl)-5-fluoropyridin-3-yl)-6-fluoropyrazolo[1,5-a]pyrimidine-3-carboxamide]", "Cisplatin Sensitization Assay": "+++ (Compounds with a Cisplatin sensitization value of <0.02 μM are marked with “+++.”)"}
{"smiles": "Nc1nn2cc(F)cnc2c1C(=O)Nc1cnccc1N1CCC(S(=O)(=O)N2CCOCC2)CC1", "note": "[I-N-170, 2-amino-6-fluoro-N-(4-(4-(morpholinosulfonyl)piperidin-1-yl)pyridin-3-yl)pyrazolo[1,5-a]pyrimidine-3-carboxamide]", "Cisplatin Sensitization Assay": "+++ (Compounds with a Cisplatin sensitization value of <0.02 μM are marked with “+++.”)"}
{"smiles": "CN1CCN(CC2CCN(c3c(F)cncc3NC(=O)c3c(N)nn4cc(F)cnc34)CC2)CC1=O", "note": "[I-N-171, 2-amino-6-fluoro-N-(5-fluoro-4-(4-((4-methyl-3-oxopiperazin-1-yl)methyl)piperidin-1-yl)pyridin-3-yl)pyrazolo[1,5-a]pyrimidine-3-carboxamide]", "Cisplatin Sensitization Assay": "+++ (Compounds with a Cisplatin sensitization value of <0.02 μM are marked with “+++.”)"}
